According to patent US20060069132A1, “Azolecarboxamide herbicides” (priority 2004, published 2006):

What was measured:
barnyardgrass = experiment: Test A pre-/postemergence herbicide test; format: in vivo, Echinochloa crus-galli
Method in brief: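 Visual injury rating on a 0–100 scale (0 no effect, 100 complete control) versus untreated controls, about ten days after treatment in greenhouse. Pre: directed soil spray onto seeded sandy loam. Post: spray to runoff on plants 2–10 cm tall at one- to two-leaf stage.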

[1] = test system: common (oilseed) sunflower; experiment: Test C pre-/postemergence herbicide test; format: in vivo, Helianthus annuus; conditions: for Plant response rating (0 = no effect, 100 = complete control), Sunflower / Plant response rating, Sunflower: preemergence; for Sunflower plant response rating: Preemergence, scale 0 to 100, 0 no effect, 100 complete control
Method in brief: (§1)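 Pre- and postemergence application, solvent/surfactant formulation; post at 1- to 4-leaf stage (2–18 cm). Greenhouse 12–14 d. Visual rating vs controls, 0 = no effect, 100 = complete control.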

johnsongrass = experiment: Test C pre-/postemergence herbicide test; format: in vivo, Sorghum halepense; conditions: for Plant response rating (0 = no effect, 100 = complete control), Johnsongrass / Plant response rating, Johnsongrass: preemergence; for Johnsongrass plant response rating: Preemergence, scale 0 to 100, 0 no effect, 100 complete control
Method in brief: as §1

corn = experiment: Test C pre-/postemergence herbicide test; format: in vivo, Zea mays; conditions: for Plant response rating (0 = no effect, 100 = complete control), Corn / Plant response rating, Corn: preemergence; for Corn plant response rating: Preemergence, scale 0 to 100, 0 no effect, 100 complete control
Method in brief: as §1

Surinam grass = experiment: Test C pre-/postemergence herbicide test; format: in vivo, Urochloa decumbens; conditions: for Plant response rating (0 = no effect, 100 = complete control), Surinam Grass / Plant response rating, Surinam Grass: preemergence; for Surinam Grass plant response rating: Preemergence, scale 0 to 100, 0 no effect, 100 complete control
Method in brief: as §1

rice = experiment: Test C flooded paddy test; format: in vivo, Oryza sativa; conditions: for Plant response rating, Rice: 500 g ai/ha, visual rating after 12 to 14 days
Method in brief: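 Postemergence sprays applied to plants 2 to 18 cm tall (1- to 4-leaf stage); paddy species grown to 2-leaf stage under flooding. After 12 to 14 days in greenhouse, visual rating versus untreated controls on 0–100 scale (0 no effect, 100 complete control).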

eastern black nightshade = experiment: Test C pre-/postemergence herbicide test; format: in vivo, Solanum ptycanthum; conditions: for Plant response rating (0 = no effect, 100 = complete control), Nightshade / Plant response rating, Nightshade: preemergence; for Nightshade plant response rating: Preemergence, scale 0 to 100, 0 no effect, 100 complete control
Method in brief: as §1

woolly cupgrass = experiment: Test C pre-/postemergence herbicide test; format: in vivo, Eriochloa villosa; conditions: for Plant response rating (0 = no effect, 100 = complete control), Cupgrass, Woolly / Plant response rating, Cupgrass, Woolly: preemergence; for Cupgrass, Woolly plant response rating: Preemergence, scale 0 to 100, 0 no effect, 100 complete control
Method in brief: as §1

lambsquarters = experiment: Test C pre-/postemergence herbicide test; format: in vivo, Chenopodium album; conditions: for Plant response rating (0 = no effect, 100 = complete control), Lambsquarters / Plant response rating, Lambsquarters: preemergence; for Lambsquarters plant response rating: Preemergence, scale 0 to 100, 0 no effect, 100 complete control
Method in brief: as §1

cocklebur = experiment: Test C pre-/postemergence herbicide test; format: in vivo, Xanthium strumarium; conditions: for Plant response rating (0 = no effect, 100 = complete control), Cocklebur / Plant response rating, Cocklebur: preemergence; for Cocklebur plant response rating: Preemergence, 500 g ai/ha, scale 0 to 100, 0 no effect, 100 complete control
Method in brief: as §1

kochia = experiment: Test C pre-/postemergence herbicide test; format: in vivo, Kochia scoparia; conditions: for Plant response rating (0 = no effect, 100 = complete control), Kochia / Plant response rating, Kochia: preemergence; for Kochia plant response rating: Preemergence, scale 0 to 100, 0 no effect, 100 complete control
Method in brief: as §1

[2] = Postemergence, 500 g ai/ha, 0 to 100 scale, 0 no effect, 100 complete control
[3] = Postemergence, 2000 g ai/ha, 0 to 100 scale, 0 no effect, 100 complete control
[4] = Preemergence, 2000 g ai/ha, visual rating, 0 to 100 scale (0 no effect, 100 complete control)
[5] = 125 g ai/ha, scale 0 (no effect) to 100 (complete control), visual, 12 to 14 days
[6] = 250 g ai/ha, scale 0 to 100 (0 no effect, 100 complete control), visual, 12 to 14 days
[7] = 62 g ai/ha, scale 0 to 100 (0 no effect, 100 complete control)
[8] = 250 g ai/ha, scale of 0 to 100, 0 is no effect, 100 is complete control
[9] = scale 0 to 100 (0 no effect, 100 complete control)
[10] = 500 g ai/ha, scale 0 to 100 (0 no effect, 100 complete control), visual, 12 to 14 days
[11] = 125 g ai/ha, scale 0 to 100 (0 no effect, 100 complete control)

SMILES: CC(=NO)c1cccc(NC(=O)c2cc(C(C)(C)C)nn2C)c1 [Compound 102]
- Barnyardgrass plant response rating (barnyardgrass; [2]): 55
- Plant response rating, Barnyardgrass (barnyardgrass; [3]): 75
- Barnyardgrass plant response rating (barnyardgrass; Preemergence, 500 g ai/ha, visual rating, 0 to 100 scale (0 no effect, 100 complete control)): 70
- Barnyardgrass plant response rating (barnyardgrass; [4]): 85
- Plant response rating (0 = no effect, 100 = complete control), Sunflower ([1]; 62 g ai/ha): 0
- Plant response rating, Sunflower [1, 5]: 20
- Sunflower plant response rating ([1]; 500 g ai/ha): 20
- Plant response rating (0 = no effect, 100 = complete control), Johnsongrass (johnsongrass; 62 g ai/ha): 50
- Plant response rating, Johnsongrass (johnsongrass; [5]): 80
- Johnsongrass plant response rating (johnsongrass; 500 g ai/ha): 100
- Plant response rating (0 = no effect, 100 = complete control), Corn (corn; 62 g ai/ha): 0
- Plant response rating, Corn (corn; [5]): 0
- Plant response rating, Corn (corn; [6]): 10
- Corn plant response rating (corn; 500 g ai/ha): 30
- Plant response rating (0 = no effect, 100 = complete control), Surinam Grass (Surinam grass; 62 g ai/ha): 0
- Surinam Grass plant response rating (Surinam grass; 500 g ai/ha): 50
- Rice plant response rating (rice; [7]): 20
- Rice plant response rating (rice; 125 g ai/ha, scale of 0 to 100, 0 is no effect, 100 is complete control): 30
- Rice plant response rating (rice; [8]): 40
- Plant response rating, Rice (rice; [9]): 60
- Plant response rating (0 = no effect, 100 = complete control), Nightshade (eastern black nightshade; 62 g ai/ha): 90
- Plant response rating, Nightshade (eastern black nightshade; [5]): 100
- Nightshade plant response rating (eastern black nightshade; 500 g ai/ha): 100
- Plant response rating (0 = no effect, 100 = complete control), Cupgrass, Woolly (woolly cupgrass; 62 g ai/ha): 0
- Plant response rating, Cupgrass, Woolly (woolly cupgrass; [5]): 10
- Plant response rating, Cupgrass, Woolly (woolly cupgrass; [6]): 20
- Cupgrass, Woolly plant response rating (woolly cupgrass; 500 g ai/ha): 40
- Plant response rating (0 = no effect, 100 = complete control), Lambsquarters (lambsquarters; 62 g ai/ha): 0
- Plant response rating, Lambsquarters (lambsquarters; [5]): 70
- Lambsquarters plant response rating (lambsquarters; 500 g ai/ha): 100
- Plant response rating (0 = no effect, 100 = complete control), Cocklebur (cocklebur; 62 g ai/ha): 10
- Plant response rating, Cocklebur (cocklebur; [5]): 20
- Plant response rating, Cocklebur (cocklebur; [6]): 20
- Cocklebur plant response rating (cocklebur): 70
- Plant response rating (0 = no effect, 100 = complete control), Kochia (kochia; 62 g ai/ha): 0
- Plant response rating, Kochia (kochia; [5]): 30
- Kochia plant response rating (kochia; 500 g ai/ha): 60

SMILES: CCc1nc(C(C)(C)C)sc1C(=O)Nc1cccc(C(=O)NCC2CC2)n1 [Compound 215]
- Barnyardgrass plant response rating (barnyardgrass; [2]): 0
- Plant response rating, Barnyardgrass (barnyardgrass; [3]): 25
- Barnyardgrass plant response rating (barnyardgrass; [4]): 35
- Barnyardgrass plant response rating (barnyardgrass; preemergence, 500 g ai/ha, visual injury, 0 to 100 scale (0 no effect, 100 complete control)): 15
- Plant response rating, Sunflower ([1]; 62 g ai/ha, scale 0 to 100): 0
- Plant response rating, Sunflower ([1]; 250 g ai/ha, scale 0-100): 0
- Plant response rating, Sunflower [1, 10]: 0
- Plant response rating, Johnsongrass (johnsongrass; 62 g ai/ha, scale 0 to 100): 0
- Plant response rating, Johnsongrass (johnsongrass; [5]): 20
- Plant response rating, Johnsongrass (johnsongrass; 250 g ai/ha, scale 0-100): 50
- Plant response rating, Johnsongrass (johnsongrass; [10]): 85
- Plant response rating, Corn (corn; 62 g ai/ha, scale 0 to 100): 0
- Plant response rating, Corn (corn; [5]): 20
- Plant response rating, Corn (corn; 250 g ai/ha, scale 0-100): 20
- Plant response rating, Corn (corn; [10]): 50
- Plant response rating, Surinam Grass (Surinam grass; 62 g ai/ha, scale 0 to 100): 0
- Plant response rating, Surinam Grass (Surinam grass; 250 g ai/ha, scale 0-100): 30
- Plant response rating, Surinam Grass (Surinam grass; [10]): 50
- Rice plant response rating (rice; [7]): 0
- Rice plant response rating (rice; [11]): 0
- Rice plant response rating (rice; [8]): 0
- Plant response rating, Rice (rice; [9]): 20
- Plant response rating, Nightshade (eastern black nightshade; 62 g ai/ha, scale 0 to 100): 100
- Plant response rating, Nightshade (eastern black nightshade; [5]): 100
- Plant response rating, Nightshade (eastern black nightshade; 250 g ai/ha, scale 0-100): 100
- Plant response rating, Nightshade (eastern black nightshade; [10]): 100
- Plant response rating, Cupgrass, Woolly (woolly cupgrass; 62 g ai/ha, scale 0 to 100): 0
- Plant response rating, Cupgrass, Woolly (woolly cupgrass; [5]): 10
- Plant response rating, Cupgrass, Woolly (woolly cupgrass; 250 g ai/ha, scale 0-100): 40
- Plant response rating, Cupgrass, Woolly (woolly cupgrass; [10]): 50
- Plant response rating, Lambsquarters (lambsquarters; 62 g ai/ha, scale 0 to 100): 100
- Plant response rating, Lambsquarters (lambsquarters; [5]): 100
- Plant response rating, Lambsquarters (lambsquarters; 250 g ai/ha, scale 0-100): 100
- Plant response rating, Lambsquarters (lambsquarters; [10]): 100
- Plant response rating, Cocklebur (cocklebur; 62 g ai/ha, scale 0 to 100): 0
- Plant response rating, Cocklebur (cocklebur; [5]): 0
- Plant response rating, Cocklebur (cocklebur; 250 g ai/ha, scale 0-100): 0
- Cocklebur plant response rating (cocklebur): 60
- Plant response rating, Kochia (kochia; 62 g ai/ha, scale 0 to 100): 100
- Plant response rating, Kochia (kochia; [5]): 100
- Plant response rating, Kochia (kochia; 250 g ai/ha, scale 0-100): 100
- Plant response rating, Kochia (kochia; [10]): 100

SMILES: CCn1nc(C(C)(C)C)cc1C(=O)Nc1cccc(S(=O)(=O)C(F)(F)F)c1 [Compound 134]
- Barnyardgrass plant response rating (barnyardgrass; Postemergence, 250 g ai/ha, 0 to 100 scale, 0 no effect, 100 complete control): 30
- Plant response rating, Barnyardgrass (barnyardgrass; Postemergence, 1000 g ai/ha, 0 to 100 scale, 0 no effect, 100 complete control): 70
- Barnyardgrass plant response rating (barnyardgrass; Preemergence, 1000 g ai/ha, visual rating, 0 to 100 scale (0 no effect, 100 complete control)): 45
- Barnyardgrass plant response rating (barnyardgrass; preemergence, 250 g ai/ha, visual injury, 0 to 100 scale (0 no effect, 100 complete control)): 25
- Plant response rating (0 = no effect, 100 = complete control), Sunflower ([1]; 62 g ai/ha): 0
- Plant response rating, Sunflower [1, 5]: 0
- Sunflower plant response rating ([1]; 500 g ai/ha): 0
- Plant response rating (0 = no effect, 100 = complete control), Johnsongrass (johnsongrass; 62 g ai/ha): 0
- Plant response rating, Johnsongrass (johnsongrass; [5]): 40
- Johnsongrass plant response rating (johnsongrass; 500 g ai/ha): 65
- Plant response rating (0 = no effect, 100 = complete control), Corn (corn; 62 g ai/ha): 0
- Plant response rating, Corn (corn; [5]): 0
- Plant response rating, Corn (corn; [6]): 0
- Corn plant response rating (corn; 500 g ai/ha): 60
- Plant response rating (0 = no effect, 100 = complete control), Surinam Grass (Surinam grass; 62 g ai/ha): 0
- Plant response rating, Surinam Grass (Surinam grass; [5]): 15
- Surinam Grass plant response rating (Surinam grass; 500 g ai/ha): 75
- Rice plant response rating (rice; [7]): 35
- Rice plant response rating (rice; [11]): 45
- Rice plant response rating (rice; [8]): 55
- Plant response rating, Rice (rice; [9]): 60
- Plant response rating (0 = no effect, 100 = complete control), Nightshade (eastern black nightshade; 62 g ai/ha): 90
- Plant response rating, Nightshade (eastern black nightshade; [5]): 95
- Nightshade plant response rating (eastern black nightshade; 500 g ai/ha): 100
- Plant response rating (0 = no effect, 100 = complete control), Cupgrass, Woolly (woolly cupgrass; 62 g ai/ha): 0
- Plant response rating, Cupgrass, Woolly (woolly cupgrass; [5]): 0
- Plant response rating, Cupgrass, Woolly (woolly cupgrass; [6]): 20
- Cupgrass, Woolly plant response rating (woolly cupgrass; 500 g ai/ha): 45
- Plant response rating (0 = no effect, 100 = complete control), Lambsquarters (lambsquarters; 62 g ai/ha): 100
- Plant response rating, Lambsquarters (lambsquarters; [5]): 100
- Lambsquarters plant response rating (lambsquarters; 500 g ai/ha): 100
- Plant response rating (0 = no effect, 100 = complete control), Cocklebur (cocklebur; 62 g ai/ha): 0
- Plant response rating, Cocklebur (cocklebur; [5]): 0
- Plant response rating, Cocklebur (cocklebur; [6]): 0
- Cocklebur plant response rating (cocklebur): 0
- Plant response rating (0 = no effect, 100 = complete control), Kochia (kochia; 62 g ai/ha): 85
- Plant response rating, Kochia (kochia; [5]): 100
- Kochia plant response rating (kochia; 500 g ai/ha): 100
